In patent US20040253665A1, “Novel peptide-producing enzyme, microbe producing the enzyme and method for dipeptide synthesis using them” (AJINOMOTO CO., INC., priority 2002, published 2004):
Like-named read-outs stand apart in the source and are kept apart here. Non-standard residues stand in square brackets, D forms with d. Residues, ends and D or L forms follow the SMILES beside them. 2Nal = N[C@@H](Cc1ccc2ccccc2c1)C(=O)O; Tle = CC(C)(C)[C@H](N)C(=O)O

How the values were obtained:
[1] = tested on: Empedobacter brevis strain FERM BP-8113 microbial cells; test: Production of peptide using microbial cells of Empedobacter brevis; type: cell-based; conditions: microbial cell suspension 100 g/L mixed 1:1 with 200 mM carboxy component and 400 mM amino acid, pH 9.0, 10 mM EDTA, 18° C., 2 hours
Protocol: A 50 mL medium (pH 6.2) containing 5 grams (hereinafter, “g”) of glucose, 5 g of ammonium sulfate, 1 g of monopotassium phosphate, 3 g of dipotassium phosphate, 0.5 g of magnesium sulfate, 10 g of yeast extract and 10 g of peptone in 1 liter (hereinafter, “L”) was transferred to a 500 mL Sakaguchi flask and sterilized at 115° C. for 15 minutes. This medium,was then inoculated with one loopful of the culture broth of Empedobacter brevis strain FERM BP-8113 (Depositary institution: National Institute for Advanced Industrial Science and Technology, International Patent Organism Depositary, Address of depositary institution: Chuo Dai-6, 1-1 Higashi 1-Chome, Tsukuba-shi, Ibaraki-ken, Japan, International deposit transfer date: Jul. 8, 2002) that had been cultured at 30° C. for 16 hours in the same medium, followed by shake culturing at 30° C. for 16 hours and 120 strokes/min.

[2] = tested on: enzyme (SP-Sepharose HP fraction) derived from Sphingobacterium sp. strain FERM BP-8124; type: biochemical; set-up: key to Produced peptide (mM): +: those peptides for which production was confirmed but which were unable to be quantified due to the absence of a standard; a trace amount; conditions: 0.33 units enzyme, pH 9.0, 25° C., 1.5 hours
Protocol: Substrate specificity was examined for enzyme derived from Sphingobacterium sp. strain FERM BP-8124 (Depositary institution: National Institute for Advanced Industrial Science and Technology, International Patent Organism Depositary, Address of depositary institution: Central. 6, 1-1-1 Higashi, Tsukuba City, Ibaraki Prefecture, Japan, International deposit date: Jul. 22, 2002). 100 μl of 100 mM borate buffer (pH 9.0) containing the various carboxy components at a final concentration of 100 mM and the various amine components at a final concentration of 150 mM shown in Tables 15-1 to 15-4, the SP-Sepharose HP fraction enzyme purified in Example 22 (addition of 0.33 units in the reaction liquid) and 10 mM EDTA were allowed to react at 25° C. for 1.5 hours. […] In addition, hydrochlorides were used for all carboxy components.
Substrate specificity with respect to oligopeptide production was examined for enzyme derived from Sphingobacterium sp. strain FERM BP-8124 (Depositary institution: National Institute for Advanced Industrial Science and Technology,.International Patent Organism Depositary, Address of depositary institution: Chuo Dai-6, 1-1 Higashi 1-Chome, Tsukuba-shi, Ibaraki-ken, Japan, International deposit date: Jul. 22, 2002). A 100 μl aliquot of 100 mM borate buffer (pH 9.0) containing the various carboxy components at a final concentration of 100 mM and the various amine components at a final concentration of 150 mM shown in Table 16, the SP-Sepharose HP fraction enzyme purified in Example 22 (addition of 0.33 units in the reaction liquid) and 10 mM EDTA were allowed to react for 1.5 hours at 25° C. Furthermore, hydrochloride salts were used for all carboxy components.

[3] = tested on: peptide-producing enzyme (Mono S fraction) from Empedobacter brevis strain FERM BP-8113; test: Enzyme substrate specificity (1)-(10), (13), (14); type: biochemical; conditions: L-amino acid 150 mM, pH 9.0, 25° C., 3 hours
Outline: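 Mono S-purified peptide-forming enzyme from Empedobacter brevis FERM BP-8113, given L-amino acid esters (hydrochlorides) or amides as carboxy component with amino acids, C-protected amino acids, methylamine, β-amino acids or peptides as amine component. Dipeptide/oligopeptide product quantified; Tween-80 0.1% added with L-Trp-OMe.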

[4] = tested on: peptide-producing enzyme (Mono S fraction) from Empedobacter brevis strain FERM BP-8113; test: Enzyme substrate specificity (1)-(10), (13), (14); type: biochemical; set-up: key: +: those peptides for which production was confirmed but which were unable to be quantified due to the absence of a standard; a trace amount
Description: Ester specificity was examined in the case of using L-amino acid ester for the carboxy component. […] The amounts of L-Ala-L-Gln produced in this reaction are shown in Table 4 (HCl represents hydrochloride in Table 4). Peptide production was examined in the case of using L-alanine methyl ester for the carboxy component and using various L-amino acids for the amine component. […] (The “+” mark indicates those peptides for which production was confirmed but which were unable to be quantified due to the absence of a standard, while “tr” indicates a trace amount.) Peptide production was examined in the case of using various types of L-amino acid methyl esters for the carboxy component and using L-glutamine for the amine component. […] Peptide production was examined in the case of using various L-amino acid methyl esters for the carboxy component and various L-amino acids for the amine component. […] (The “tr” indicates a trace amount.) Furthermore, Tween-80 was added to the reaction system to a final concentration of 0.1% in the case of using L-Trp-OMe. (The “+” mark indicates those peptides for which production was confirmed but which were unable to be quantified due to the absence of a standard.) […] (The “tr” indicates a trace amount.) Peptide production was examined using various L-amino acid amides for the carboxy component, and various L-amino acids for the amine component. […] Peptide production was examined in the case of using various L-alanine methyl esters for the carboxy component and C-protected L-amino acids for the amine component. […] Peptide production was examined in the case of using various amino acid methyl esters for the carboxy component and methylamine for the amine component. […] Peptide production was examined in the case of using β-amino acid ester for the carboxy component or β-amino acid for the amine component. […] (The “tr” indicates a trace amount.) Oligopeptide production was examined in the case of using L-amino acid ester for the carboxy component and peptide for the amine component. […] Substrate specificity was additionally assessed using the same enzyme fraction as that used in Example 5. […] (A “+” mark indicates those for which production was confirmed but which were unable to be quantified due to the absence of a standard, while “tr” indicates a trace amount). Substrate specificity with respect to oligopeptide production was assessed using the same enzyme fraction as Example 26. […] (A “+” mark indicates those for which production was confirmed but which were unable to be quantified due to the absence of a standard, while “tr” indicates a trace amount). It should be noted that hydrochlorides were used for all of the carboxy components.

[5] = Table 15-3, carboxy component 100 mM, amine component 150 mM
[6] = L-amino acid methyl ester hydrochloride 100 mM
[7] = Table 15-1, carboxy component 100 mM, amine component 150 mM
[8] = 100 mM L-alanine methyl ester hydrochloride
[9] = 100 mM L-alanine methyl ester hydrochloride, L-amino acid 150 mM, pH 9.0, 25° C., 3 hours
[10] = L-amino acid methyl ester hydrochloride 100 mM, 150 mM L-glutamine, pH 9.0, 25° C., 3 hours
[11] = carboxy component 100 mM, amine component 150 mM, 0.1 unit enzyme, 25° C., reaction time 3 hr

## CC[C@H](C)[C@H](N)C(=O)N[C@@H](CCSC)C(=O)O [L-Ile-L-Met] (H-Ile-Met-OH)
[1]
  Produced peptide: 8.3 mM
[2]; [5]
  Produced peptide: 5.1 mM
[3]; [6]
  Produced peptide: 10.0 mM

## CC(C)C[C@H](NC(=O)[C@@H](N)[C@@H](C)O)C(=O)O [L-Thr-L-Leu] (H-Thr-Leu-OH)
[1]
  Produced peptide: 23.0 mM
[2]; [5]
  Produced peptide: 15.3 mM
[3]; [6]
  Produced peptide: 28.4 mM

## N[C@@H](CO)C(=O)N[C@@H](CO)C(=O)O [L-Ser-L-Ser] (H-Ser-Ser-OH)
[1]
  Produced peptide: 29.0 mM
[2]; [5]
  Produced peptide: 9.9 mM
[3]; [6]
  Produced peptide: 38.0 mM

## C[C@H](N)C(=O)N[C@@H](CO)C(=O)O [L-Ala-L-Ser] (H-Ala-Ser-OH)
[1]
  Produced peptide: 51.3 mM
[2]; [7]
  Produced peptide: 43.8 mM
[3]; [8]
  Produced peptide: 62.5 mM

## C[C@H](N)C(=O)N[C@@H](Cc1cnc[nH]1)C(=O)O [L-Ala-L-His] (H-Ala-His-OH)
[1]
  Produced peptide: 52.1 mM
[2]; [7]
  Produced peptide: 73.6 mM
[2]; Table 15-4, amides or methylamine as components, 100 mM / 150 mM
  Produced peptide (mM): tr
[3]; [8]
  Produced peptide: 66.9 mM
[3]; L-amino acid amide hydrochloride 100 mM as carboxy component
  Produced peptide: 3.9 mM

## C[C@H](N)C(=O)N[C@@H](Cc1ccccc1)C(=O)O [L-Ala-L-Phe]
[1]
  Produced peptide: 62.4 mM
[2]; [7]
  Produced peptide: 69.5 mM
[3]; [8]
  Produced peptide: 74.4 mM

## C[C@H](N)C(=O)N[C@@H](CS)C(=O)O [L-Ala-L-CySH] (H-Ala-Cys-OH)
[2]; [7]
  Produced peptide (mM): +
[4]; [9]
  Produced peptide (mM): +

## NC(=O)CC[C@H](NC(=O)[C@@H](N)CC(=O)O)C(=O)O [α-L-Asp-L-Gln] (H-Asp-Gln-OH)
[2]; Table 15-2, carboxy component 100 mM, L-Gln 150 mM
  Produced peptide: 0.05 mM
[4]; [10]
  Produced peptide (mM): tr

## CSCC[C@H](NC(=O)[C@@H](N)C(C)C)C(=O)O [L-Val-L-Met] (H-Val-Met-OH)
[1]
  Produced peptide: 10.5 mM
[2]; [5]
  Produced peptide: 6.8 mM
[3]; [6]
  Produced peptide: 10.3 mM

## NC(=O)CC[C@H](NC(=O)[C@@H](N)Cc1ccc(Cl)cc1)C(=O)O [H-Cl-F-Phe-H-Gln-OH]
[4]; carboxy component 25 mM, amine component 50 mM, 0.1 unit enzyme, 25° C., reaction time 3 hr
  Produced peptide (mM): tr

## NCC(=O)N[C@@H](Cc1cnc[nH]1)C(=O)O [Gly-L-His] (H-Gly-His-OH)
[1]
  Produced peptide: 22.1 mM
[2]; [5]
  Produced peptide: 36.2 mM
[3]; [6]
  Produced peptide: 31.6 mM

## NCCCC[C@H](N)C(=O)N[C@@H](CCC(N)=O)C(=O)O [L-Lys-L-Gln] (H-Lys-Gln-OH)
[4]; [10]
  Produced peptide (mM): +

## NC(=O)CC[C@H](NC(=O)[C@@H](N)CS)C(=O)O [L-CySH-L-Gln] (H-Cys-Gln-OH)
[4]; [10]
  Produced peptide (mM): +

## NC(=O)CC[C@H](NC(=O)C[C@H](N)C(=O)O)C(=O)O [β-L-Asp-L-Gln]
[4]; [10]
  Produced peptide (mM): tr

## CC(C)C[C@H](NC(=O)[C@H](C)N)C(=O)O [L-Ala-L-Leu] (H-Ala-Leu-OH)
[1]
  Produced peptide: 38.2 mM
[2]; [7]
  Produced peptide: 33.0 mM
[3]; [8]
  Produced peptide: 45.3 mM

## NC(=O)CCC(NC(=O)C(N)Cc1c[nH]c2ccccc12)C(=O)O [L-Trp-L-Gln] (H-Trp-Gln-OH; configuration not given here)
[4]; [10]
  Produced peptide (mM): +

## CC(C)C[C@H](N)C(=O)N[C@@H](CCC(N)=O)C(=O)O [L-Leu-L-Gln] (H-Leu-Gln-OH)
[4]; [10]
  Produced peptide (mM): +

## CC(C)(C)[C@H](N)C(=O)N[C@@H](CCC(N)=O)C(=O)O [H-t-Leu-H-Gln-OH] (H-[Tle]-Gln-OH)
[4]; [11]
  Produced peptide (mM): tr

## CSCC[C@H](N)C(=O)N[C@@H](Cc1ccccc1)C(=O)O [L-Met-L-Phe] (H-Met-Phe-OH)
[1]
  Produced peptide: 28.5 mM
[2]; [5]
  Produced peptide: 8.9 mM
[3]; [6]
  Produced peptide: 34.0 mM

## C[C@H](N)C(=O)N[C@@H](CCCN=C(N)N)C(=O)O [L-Ala-L-Arg] (H-Ala-Arg-OH)
[1]
  Produced peptide: 72.1 mM
[2]; [7]
  Produced peptide: 72.2 mM
[3]; [8]
  Produced peptide: 88.0 mM

## C[C@H](N)C(=O)N1CCC[C@H]1C(=O)O [L-Ala-L-Pro] (H-Ala-Pro-OH)
[2]; [7]
  Produced peptide: 1.5 mM
[4]; [9]
  Produced peptide (mM): tr

## C[C@H](NC(=O)CCN)C(=O)O [β-Ala-L-α-Ala]
[4]; β-amino acid ester as carboxy component or β-amino acid as amine component, 100 mM / 150 mM, pH 9.0, 25° C., 3 hours
  Produced peptide (mM): tr

## NC(=O)CC[C@H](NC(=O)[C@@H](N)Cc1ccc2ccccc2c1)C(=O)O [H-2-Nal-H-Gln-OH] (H-[2Nal]-Gln-OH)
[4]; carboxy component 40 mM, amine component 40 mM, 0.1 unit enzyme, 25° C., reaction time 3 hr
  Produced peptide (mM): tr

## NC(=O)CC[C@H](NC(=O)[C@@H](N)Cc1ccc(F)cc1)C(=O)O [H-p-F-Phe-H-Gln-OH]
[4]; [11]
  Produced peptide (mM): tr
